Results reported in paper PMC7114128 (Antiviral Research, 2009).
Read-outs that look alike come from different tables or passages of the source.

Key:
[1] = test system: wtSARS-CoV strain PUMC01 F5; type: cell-based, SARS-CoV
[2] = test system: HIV/SARS-CoV S pseudovirus; assay: organism not typed; settings: HepG2
in vitro = settings: human
[3] = test system: HIV/SARS-CoV S pseudovirus
TfR = type: cell-based
ACE2 = type: cell-based, human
CD59 = type: cell-based

Compound: O=C(O)C=Cc1ccccc1O [2-Hydroxycinnamic acid]
- Anti-SARS-CoV activity in wtSARS-CoV infection [1]: did not show any anti-SARS-CoV activities
- IC50 [2]: 0.3 ± 0.013 mM
- CC50 (in vitro): 2.5 ± 0.122 mM

Compound: OCCc1ccccc1 [2-Phenylethanol (phenethy alcohol), 2-Phenylethanol]
- Anti-SARS-CoV activity in wtSARS-CoV infection [1]: did not show any anti-SARS-CoV activities
- IC50 [2]: 4.1 ± 0.199 mM
- CC50 (in vitro): 24.5 ± 1.53 mM

Compound: CC(=O)c1ccccc1O [2′-Hydroxyacetophenone]
- IC50 [2]: 1.8 ± 0.102 mM
- CC50 (in vitro): 1.8 ± 0.071 mM
- SI (CC50/IC50) [3]: 1

Compound: COc1ccc(C=CC(=O)O)cc1OC [3,4-Dimethoxycinnamic acid]
- IC50 [2]: 5 ± 0.233 mM
- CC50 (in vitro): 10 ± 0.62 mM
- SI (CC50/IC50) [3]: 2

Compound: C=CCc1ccc(OC)cc1 [4-Allylanisole]
- IC50 [2]: 8.4 ± 0.65 mM
- CC50 (in vitro): 8 ± 0.563 mM

Compound: COc1cc(C=CC=O)ccc1O [4-Hydroxy-3-methoxy cinnamaldehyde]
- IC50 [2]: 0.3 ± 0.013 mM
- CC50 (in vitro): 0.7 ± 0.043 mM
- SI (CC50/IC50) [3]: 2.3

Compound: COc1cc(C=CC(=O)O)ccc1O [4-Hydroxy-3-methoxycinnamic acid]
- IC50 [2]: 5 ± 0.312 mM
- CC50 (in vitro): 10 ± 0.555 mM
- SI (CC50/IC50) [3]: 2

Compound: O=c1cc(O)c2ccccc2o1 [4-Hydroxycoumarin]
- IC50 [2]: 10.3 ± 0.5 mM
- CC50 (in vitro): 10.3 ± 0.66 mM
- SI (CC50/IC50) [3]: 1

Compound: O=c1ccc2ccc(O)cc2o1 [7-Hydroxycoumarin]
- IC50 [2]: 2.5 ± 0.172 mM
- CC50 (in vitro): 10.7 ± 0.56 mM
- SI (CC50/IC50) [3]: 4.3

Compound: Oc1cc(O)c2c(c1)O[C@@]1(c3ccc(O)c(O)c3)Oc3cc(O)c4c(c3[C@@H]2[C@H]1O)O[C@H](c1ccc(O)c(O)c1)[C@H](O)[C@H]4c1c(O)cc(O)c2c1O[C@H](c1ccc(O)c(O)c1)[C@H](O)C2 [Cinnamtannin B1]
- IC50 with virus pretreated (1 h) compared with drug added simultaneously (0 h) [1]: not different
- Effect on TfR expression (TfR): up-regulated
- IC50 [2]: 0.0329 ± 0.0028 mM
- ACE2 expression versus untreated control (positive percentages and MFI) (ACE2): no significant difference
- CC50 (in vitro): 0.242 ± 0.0148 mM

Compound: CC(=O)OC/C=C/c1ccccc1 [Cinnamylacetate]
- CC50 (HepG2 cells): 7.1 ± 0.42 mM
- IC50 [3]: 7.1 ± 0.35 mM
- SI (CC50/IC50) [3]: 1

Compound: CCOC(=O)/C=C/c1ccccc1 [Ethylcinnamate]
- IC50 [2]: 7.1 ± 0.532 mM
- CC50 (in vitro): 14.1 ± 1.22 mM
- SI (CC50/IC50) [3]: 2.0

Compound: C=CC(C)(C)c1cc(/C=C/C(=O)c2ccc(O)cc2)c(OC)cc1O [Licochalcone-A]
- CC50 (HepG2 cells): 0.03 ± 0.001 mM
- IC50 [3]: 0.03 ± 0.003 mM
- SI (CC50/IC50) [3]: 1

Compound: Oc1cc(O)c2c(c1)O[C@H](c1ccc(O)c(O)c1)[C@H](O)[C@H]2c1c(O)cc(O)c2c1O[C@H](c1ccc(O)c(O)c1)[C@@H](O)C2 [Procyanidin B1]
- IC50 with virus pretreated (1 h) compared with drug added simultaneously (0 h) [1]: not different
- Effect on TfR expression (TfR): did not affect
- IC50 [2]: 0.161 ± 0.0203 mM
- ACE2 expression versus untreated control (positive percentages and MFI) (ACE2): no significant difference
- CC50 (in vitro): 0.656 ± 0.0367 mM
- Effect on CD59 expression (CD59): did not affect

Compound: O=C/C=C/c1ccccc1 [Trans-cinnamaldehyde]
- IC50 [2]: 0.2 ± 0.016 mM
- CC50 (in vitro): 0.2 ± 0.014 mM
- SI (CC50/IC50) [3]: 1

Compound: O=C(O)/C=C/c1ccccc1 [Trans-cinnamic acid]
- Anti-SARS-CoV activity in wtSARS-CoV infection [1]: did not show any anti-SARS-CoV activities
- CC50 (HepG2 cells): 22.4 ± 1.23 mM
- IC50 [3]: 3 ± 0.178 mM

Compound: Cc1ccc(C(C)C)cc1 [p-Cymene]
- IC50 [2]: 75 ± 5.55 mM
- CC50 (in vitro): 75 ± 4.35 mM
- SI (CC50/IC50) [3]: 1

Compound: Oc1cc(O)c2c(c1)O[C@H](c1ccc(O)c(O)c1)[C@H](O)[C@H]2c1c(O)cc(O)c2c1O[C@H](c1ccc(O)c(O)c1)[C@H](O)C2 [procyanidins B2, procyanidin B2]
- Anti-SARS-CoV activity in wtSARS-CoV infection [1]: did not inhibit
- Effect on TfR expression (TfR): nor up-regulate

Compound: Isoeugenol
- IC50 [3]: 2 ± 0.142 mM
